≈ marks a conversion by molar mass, not a printed value. Like-named read-outs stand apart in the source and are kept apart here.
Tests used:
[1] = test system: B-16 mouse melanoma cells; assay: Inhibitory effect against melanin biosynthesis in B-16 mouse melanoma cell; assay type: cell-based; conditions: 72 h, read-out: IC50 (inhibition of melanin biosynthesis)
Procedure: Inhibitory Effect Against Melanin Biosynthesis in B-16 Mouse Melanoma Cell
B-16 mouse melanoma cells were cultured to a density of 10^6 cells/dish in culture media compounds in various concentrations were respectively added thereto and then cultured for 3 days. The cells were separated from the culture dish by the treatment with trypsin and then centrifuged to extract melanin(wherein a pellet was extracted using 2N perchloric acid). 1 ml of 1N aqueous sodium hydroxide solution was added to the melanin extracted and the resulting mixture was heated to dissolve melanrin. The absorbance at 400 nm was measured by a spectrophotometer and the amount of the melanin produced was represented by the absorbance per unit cell numbers(10^6 cell).

tyrosinase = assay: Inhibitory activity against tyrosinase (mushroom enzyme, L-tyrosine substrate, absorbance at 475 nm); assay type: biochemical, mushrooms; conditions: pH 6.8, 37° C., 10 minutes
Procedure: That is, a sample is introduced into a microplate, to which are added a phosphate buffer solution(pH 6.8) and a L-tyrosine solution.
Inhibitory Activity Against Tyrosinase
Enzyme tyrosinase extracted from mushrooms(manufactured by Sigma) was used in the present experiment. First, a substrate L-tyrosine was dissolved in phosphate buffer solution(0.05M, pH 6.8) to a concentration of 1.5 mM and then 0.01 ml of this solution was introduced to a 0.3 ml cuvette in a spectrophotometry. Dopa as a cofacter was prepared as a solution in a concentration of 0.06 mM and 0.01 ml of this dopa solution was added to the substrate solution. To the resulting mixture were added the inhibitor of formula (I) and phosphate buffer solution to a total volume of 0.31 ml. The reaction was started by adding 0.1 ml of an enzyme solution in which tyrosinase was dissolved in phosphate buffer solution in a concentration of 60 U/ml. 0.1 ml of phosphate buffer solution instead of the enzyme solution was added to the blank sample. The reaction was carried out for 10 minutes at 37° C. and then absorbance at 475 nm was measured using Spectrophotometer (Beckman DU-7500).
[formula] in the above formula A represents absorbance at 475 nm when the inhibitor is added, and
B represents absorbance at 475 nm when the inhibitor is not added.

[2] = literature, J. Soc. Cosmet. Chem., 42, 361, 1991; cited from earlier work
[3] = background; cited from earlier work
[4] = B-16 mouse melanoma cells, 3 days, absorbance at 400 nm

Row | SMILES | IC50 [1, 4] [µg/mL] | IC50 (inhibitory activity against tyrosinase) (tyrosinase) [µg/mL] | side effects [2] | IC50 ([1]; Mus musculus) [µg/mL] | whitening effect [3]
1 | Cc1c(C)c(O)c(C(O)CCc2ccc(O)cc2O)c(C)c1O (centres unmarked) [Compound 1, 4-[3-hydroxy-3-(2,5-dihydroxy-3,4,6-trimethyl-phenyl)-propyl]-benzene-1,3-diol] | 10 (≈ 31.4 µM) | 0.5 (≈ 1.57 µM) |  |  | 
2 | CCOc1c(C)c(C)c(O)c(C(O)CCc2ccc(O)cc2O)c1C (centres unmarked) [Compound 7] | 20 (≈ 57.7 µM) | 1.0 (≈ 2.89 µM) |  |  | 
3 | COc1c(C)c(C)c(O)c(C)c1C(O)CCc1ccc(O)cc1O (centres unmarked) [Compound 3, 4-[3-hydroxy-3-(5-hydroxy-2-methoxy-3,4,6-trimethyl-phenyl)-propyl]-benzene-1,3-diol] | 40 (≈ 120 µM) | 50 (≈ 150 µM) |  |  | 
4 | Cc1c(C)c2c(c(C(O)CCc3ccc(O)cc3O)c1O)CCC(C)(C)O2 (centres unmarked) [Compound 8, 4-[3-hydroxy-3-(6-hydroxy-2,2,7,8-tetramethyl-chroman-5-yl)-propyl]-benzene-1,3-diol] | 2 (≈ 5.37 µM) | 0.3 (≈ 0.805 µM) |  |  | 
5 | Oc1ccc(O)cc1 [Hydroquinone, reference compound] |  | 0.5 (≈ 4.54 µM) | degeneration or lethal mutation of melanin, damage of the cellular function |  | 
6 | O=c1cc(CO)occ1O [Kojic acid, reference compound] |  |  |  | 15 (≈ 106 µM) | 
7 | Cc1c(C)c2c(c(CCCc3ccc(O)cc3O)c1O)CCC(C)(C)O2 [Compound 9, 4-[3-(6-hydroxy-2,2,7,8-tetramethyl-chroman-5-yl)-propyl]-benzene-1,3-diol] | 3 (≈ 8.42 µM) | 0.3 (≈ 0.842 µM) |  |  | 
8 | COc1c(C)c(C)c(O)c(C(O)CCc2ccc(O)cc2O)c1C (centres unmarked) [Compound 5, 4-[3-hydroxy-3-(2-hydroxy-5-methoxy-3,4,6-trimethyl-phenyl)-propyl]-benzene-1,3-diol] | 5 (≈ 15 µM) | 0.1 (≈ 0.301 µM) |  |  | 
9 | COc1c(C)c(C)c(O)c(C)c1CCCc1ccc(O)cc1O [Compound 4] | 45 (≈ 142 µM) | 20 (≈ 63.2 µM) |  |  | 
10 | COc1c(C)c(C)c(O)c(CCCc2ccc(O)cc2O)c1C [Compound 6, 4-[3-(2-hydroxy-5-methoxy-3,4,6-trimethyl-phenyl)-propyl]-benzene-1,3-diol] | 10 (≈ 31.6 µM) | 0.1 (≈ 0.316 µM) |  |  | 
11 | Cc1c(C)c(O)c(CCCc2ccc(O)cc2O)c(C)c1O [Compound 2, 4-13-(2,5-dihydroxy-3,4,6-trimethyl-phenyl)-propyll-benzene-1,3-diol] | 5 (≈ 16.5 µM) | 1 (≈ 3.31 µM) |  |  | 
12 | OC[C@H]1O[C@@H](Oc2ccc(O)cc2)[C@H](O)[C@@H](O)[C@@H]1O [Arbutin, reference compound] | 300 (≈ 1100 µM) |  |  |  | little whitening effect
